Assays:
Aspergillus niger = assay: Agar diffusion method, fungicidal activity; assay type: cell-based; conditions: 28° C., 72 hours; controls 100 μg/ml
Experimental: (§1) This activity was determined using the agar diffusion method (Manual of Clinical Microbiology. 6th ed. Washington, DC: ASM; 1995). The effectiveness of the different suspensions was assayed against Gram positive bacteria (Bacillus subtilis, Staphylococcus aureus), Gram negative bacteria (E. coli, Proteus mirabilis), and against fungi (Candida albicans, Aspergillus niger) using the technique of wells in nutrient agar plates. These microorganisms were identified and provided by the microorganism collection BCCM/LMG (Belgium). Bacteria were grown overnight at 37° C. in Tryptone Soy Broth (Oxoid), and fungi were incubated for 72 hours at 28° C. in Sabouraud Dextrose Broth (Oxoid). These suspensions were used as inocula. A final inoculum, using 100 μl of a suspension containing 10^8 colony forming units/ml of bacteria, or 10^4 spores/ml of fungus, was spread on Tryptone Soy Agar and Sabouraud Dextrose Agar (Oxoid) plates, respectively. The disk (6 mm in diameter) was impregnated with each of the different vesicle suspensions to be tested. […] Assay plates were incubated at 37° C. for 24 hours for bacteria, and 28° C. during 72 hours for fungi, depending on the incubation time required for visible growth.

Candida albicans = assay: Agar diffusion method, fungicidal activity; assay type: cell-based; conditions: 28° C., 72 hours; controls 100 μg/ml
Experimental: as §1

[1] = cholesterol:CTAB vesicles, DELOS-SUSP; cited from earlier work

In the case of `OC(Cn1cncn1)(Cn1cncn1)c1ccc(F)cc1F` [Fluconazole, fluconazole], the “Fungicidal activity (Inhibition zone) A. niger” value (Aspergillus niger) is reported as 21 mm and the “Fungicidal activity (Inhibition zone) C. albicans” value (Candida albicans) is reported as 22 mm.
In the case of gentamicin, the gentamicin encapsulation [1] is listed as less than 2%.
